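Test compounds were applied to cells in 96-well plates for 48 hours at 5 doses. TGI: total growth inhibition.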
Key:
Experiment in all cases: DTP human tumour cell line panel, 48 h
MCF7 breast = tested on: MCF7 breast
HOP-92 NSCLC = tested on: HOP-92 NSCLC
PC-3 prostate = tested on: PC-3 prostate
NCI-H226 lung = tested on: NCI-H226 lung
NCI-H23 lung = tested on: NCI-H23 lung
EKVX NSCLC = tested on: EKVX NSCLC
KM12 colon = tested on: KM12 colon
U251 CNS = tested on: U251 CNS
SF-268 CNS = tested on: SF-268 CNS
ACHN renal = tested on: ACHN renal
M14 melanoma = tested on: M14 melanoma
HCT-15 colon = tested on: HCT-15 colon
UACC-62 melanoma = tested on: UACC-62 melanoma
T-47D breast = tested on: T-47D breast
SW-620 colon = tested on: SW-620 colon
NCI/ADR-RES ovarian = tested on: NCI/ADR-RES ovarian
COLO 205 colon = tested on: COLO 205 colon
HCC-2998 colon = tested on: HCC-2998 colon
HOP-62 NSCLC = tested on: HOP-62 NSCLC
SF-539 CNS = tested on: SF-539 CNS
HT29 colon = tested on: HT29 colon
OVCAR-4 ovarian = tested on: OVCAR-4 ovarian
HL-60(TB) leukemia = tested on: HL-60(TB) leukemia
SK-MEL-2 melanoma = tested on: SK-MEL-2 melanoma
CCRF-CEM leukemia = tested on: CCRF-CEM leukemia
LOX IMVI melanoma = tested on: LOX IMVI melanoma
786-0 renal = tested on: 786-0 renal
BT-549 breast = tested on: BT-549 breast
MDA-MB-435 = tested on: MDA-MB-435
RPMI-8226 leukemia = tested on: RPMI-8226 leukemia
OVCAR-5 ovarian = tested on: OVCAR-5 ovarian
SN12C renal = tested on: SN12C renal
NCI-H522 lung = tested on: NCI-H522 lung
RXF 393 renal = tested on: RXF 393 renal
HCT-116 colon = tested on: HCT-116 colon
A549 NSCLC = tested on: A549 NSCLC
CAKI-1 renal = tested on: CAKI-1 renal
TK-10 renal = tested on: TK-10 renal
MALME-3M melanoma = tested on: MALME-3M melanoma
SNB-75 CNS = tested on: SNB-75 CNS
SR leukemia = tested on: SR leukemia
UO-31 renal = tested on: UO-31 renal
OVCAR-8 ovarian = tested on: OVCAR-8 ovarian
SK-MEL-28 melanoma = tested on: SK-MEL-28 melanoma
IGROV1 ovarian = tested on: IGROV1 ovarian
SNB-19 CNS = tested on: SNB-19 CNS
HS 578T breast = tested on: HS 578T breast
SK-OV-3 ovarian = tested on: SK-OV-3 ovarian
MOLT-4 leukemia = tested on: MOLT-4 leukemia
OVCAR-3 ovarian = tested on: OVCAR-3 ovarian
MDA-N = tested on: MDA-N
A498 renal = tested on: A498 renal
SK-MEL-5 melanoma = tested on: SK-MEL-5 melanoma
MDA-MB-231 breast = tested on: MDA-MB-231 breast
K-562 leukemia = tested on: K-562 leukemia
DU-145 prostate = tested on: DU-145 prostate
UACC-257 melanoma = tested on: UACC-257 melanoma
SF-295 CNS = tested on: SF-295 CNS

Work on `C=C1C2CC[C@@](C)(O)C2[C@H]2OC(=O)C(=C)[C@@H]2C[C@H]1O` (stereo partly drawn) yielded a TGI (MCF7 breast) of 27.3 µM, a TGI (HOP-92 NSCLC) of 88.9 µM and a TGI (PC-3 prostate) greater than 100 µM. The TGI (NCI-H226 lung) was 40.1 µM, the TGI (NCI-H23 lung) was 36 µM and the TGI (EKVX NSCLC) was greater than 100 µM. The TGI (KM12 colon) was 46.2 µM, the TGI (U251 CNS) was greater than 100 µM and the TGI (SF-268 CNS) was greater than 100 µM. The TGI (ACHN renal) was 22.7 µM, the TGI (M14 melanoma) was 31.9 µM and the TGI (HCT-15 colon) was 45.9 µM. The TGI (UACC-62 melanoma) was 30.1 µM, the TGI (T-47D breast) was 42.1 µM and the TGI (SW-620 colon) was greater than 100 µM. The TGI (NCI/ADR-RES ovarian) was 45.8 µM, the TGI (COLO 205 colon) was 37.6 µM and the TGI (HCC-2998 colon) was 37.3 µM. For the same compound, the TGI (HOP-62 NSCLC) was greater than 100 µM, the TGI (SF-539 CNS) was 27.2 µM and the TGI (HT29 colon) was 32.7 µM. For the same compound, the TGI (OVCAR-4 ovarian) was 30.3 µM, the TGI (HL-60(TB) leukemia) was greater than 100 µM and the TGI (SK-MEL-2 melanoma) was 50.7 µM. It also gave a TGI (CCRF-CEM leukemia) of 17.9 µM, a TGI (LOX IMVI melanoma) of 35 µM and a TGI (786-0 renal) of 39.2 µM. For the same compound, the TGI (BT-549 breast) was 24.8 µM, the TGI (MDA-MB-435) was greater than 100 µM and the TGI (RPMI-8226 leukemia) was greater than 100 µM. The TGI (OVCAR-5 ovarian) was greater than 100 µM, the TGI (SN12C renal) was 59 µM and the TGI (NCI-H522 lung) was 35.6 µM. It also gave a TGI (RXF 393 renal) of 71.9 µM, a TGI (HCT-116 colon) greater than 100 µM and a TGI (A549 NSCLC) greater than 100 µM. It also gave a TGI (CAKI-1 renal) of 27.2 µM, a TGI (TK-10 renal) of 37.8 µM and a TGI (MALME-3M melanoma) of 30.5 µM. The TGI (SNB-75 CNS) was greater than 100 µM, the TGI (SR leukemia) was greater than 100 µM and the TGI (UO-31 renal) was 31.5 µM. For the same compound, the TGI (OVCAR-8 ovarian) was 56.5 µM, the TGI (SK-MEL-28 melanoma) was 72.8 µM and the TGI (IGROV1 ovarian) was greater than 100 µM. For the same compound, the TGI (SNB-19 CNS) was greater than 100 µM, the TGI (HS 578T breast) was 71.5 µM and the TGI (SK-OV-3 ovarian) was 80.2 µM. It also gave a TGI (MOLT-4 leukemia) of 60 µM, a TGI (OVCAR-3 ovarian) of 64.1 µM and a TGI (MDA-N) of 91.1 µM. The TGI (A498 renal) was greater than 100 µM, the TGI (SK-MEL-5 melanoma) was 28.8 µM and the TGI (MDA-MB-231 breast) was 80.1 µM. For the same compound, the TGI (K-562 leukemia) was greater than 100 µM, the TGI (DU-145 prostate) was 35.5 µM and the TGI (UACC-257 melanoma) was 41.8 µM. It also gave a TGI (SF-295 CNS) greater than 100 µM.

Reference: PubChem BioAssay (NCI)
